Consider one molecule from patent US20230414554A1, “COMPOUNDS FOR TREATING HEPATOCELLULAR CARCINOMA” (SERVICIO ANDALUZ DE SALUD, priority 2020, published 2023).

The subject of data set [1] is Hep3b-induced xenograft tumors. Nature of the data set: Hep3b xenograft model, tumor growth and necrosis. The format is in vivo, nude mice. The following applies: sorafenib 30 mg/kg in drinking water for 3 days; histopathology vs vehicle. The procedure: For in vitro and in vivo administrations, pladienolide-B (Santa Cruz, Heidelberg, Germany) was resuspended in DMSO (Sigma-Aldrich, Madrid, Spain). For in vitro administration, sorafenib (LC Laboratories, Woburn, USA) was dissolved in DMSO. […] For in vivo tests, sorafenib was dissolved in Cremophor EL/ethanol (50:50).
Experiments with xenograft mice were conducted in accordance with the European Animal Care Regulations under the approval of the university/regional government research ethics committees. 5×10^6 Hep3b cells (n=16 mice; n=32 tumors) in 50 μl of BME (Trevigen, Gaithersburg, MD) were subcutaneously grafted on both flanks of eight-week-old male Fox1nu/Foxn1nu nude mice (Janvier Labs, Le Genest-Saint-Isle, France). Tumor growth was monitored twice a week for 2 months by means of using a digital caliper. In the third week after grafting, when tumors were visible, the mice were treated with vehicle, pladienolide B, sorafenib, or the combination thereof (n=4 mice/treatment; n=8 tumors/treatment). Sorafenib (30 mg/kg) was administered dissolved in drinking water for 3 days; whereas the water of the remaining mice was treated with cremophor/ethanol vehicle. Pladienolide-B (10^−8M) was injected intratumorally on the second day of treatment with sorafenib. […] Tumor necrosis was evaluated after hematoxylin and eosin staining by expert pathologists.

The test system of data set [2] is THLE-2 cells. As to the kind of experiment: Cell proliferation/viability of cell line derived from normal hepatocytes. The format is cell-based. The following applies: after 72 h; pladienolide-B 10^−8 M, sorafenib 5 nM. The procedure:
Cell lines and treatments HepG2, Hep3b, and SNU-387 (HB-8065) cell lines were purchased from ATCC (Manassas, USA) and cultured as recommended. The cells were kept at 37° C. and 5% CO2, and periodically validated by means of STR analysis (GenePrint, Promega, Barcelona, Spain) and analyzed to detect mycoplasma contamination. THLE-2 cells were cultured according to the manufacturer's instructions. […] Positive controls [IGF-1 (10^−6M)] and negative controls [Paclitaxel (10^−7M)] were used.
The determination of cell proliferation, migration, apoptosis, clone and tumorsphere formation was performed as published previously.

Take `CNC(=O)c1cc(Oc2ccc(NC(=O)Nc3ccc(Cl)c(C(F)(F)F)c3)cc2)ccn1` [sorafenib, reference compound]: in data set [1], the tumor necrosis entry is listed as “greater necrosis than tumors treated with vehicle”. For the same molecule, the “viability of THLE-2 cells” value in data set [2] is reported as “significantly reduced same”.
